Laboratory results published in US20250049708A1, “A TOPICAL GEL FORMULATION FOR SKIN AND MOUTH DISORDERS AND A PROCESS OF PREPARATION THEREOF” (priority 2021, published 2025).

Assays:
Format in all cases: in vivo, male BALB/c mice
IL-6 = test: tongue and serum IL-6 levels in mice with oral mucositis (mouse IL-6 ELISA kit); conditions: 5-FU + scratch mice
Method: (§1) The in vivo pharmacological assessment of anti-mucositis activity of the topical or oromucosal gel formulation in male BALB/c mice was performed. The study protocol involves six BALB/c mice namely vehicle, 5-Fluorouracil (FU) group, 5 FU-group+Scratching, FU-group+Scratching, FU-group+Scratching+100 ug gel and FU-group+Scratching+30 ug respectively were maintained under specific pathogen-free conditions. The mice were 6-8 weeks of age and weighed 25-30 g. All animal experimental procedures were performed in accordance with the Institutional Animal Ethics Committee (IAEC) guidelines along with approval from IAEC.
(§2) The anti-mucositis study protocol involves mice that are intraperitoneally administered with 5-FU at 100 mg/kg on day 0. The scratching group of mice was anesthetized with isoflurane and an area of 0.5 cm^2 of the tongue was scratched using the tip of an 18-gauge needle at an equal force and depth on days 7 and 8. […]
(§3) The levels of biomarkers such as IL-6 and TNF-α were analyzed in mice upon treatment with topical or oromucosal gel formulation. The concentrations of these biomarkers in serum and tongue were analyzed using standard ELISA kits.
The tongue and serum concentrations of IL-6 were analyzed in mice with oral mucositis upon treatment with topical or oromucosal gel formulation. The concentrations of IL-6 in tongue and serum were analyzed using mouse IL-6 ELISA kit.

oral mucositis = test: anti-mucositis activity (mucositis score) in mice with 5-FU + tongue scratching induced oral mucositis; conditions: score 0-5
Method: as §1
The activity of misoprostol of the topical or oromucosal gel formulation was analyzed for anti-mucositis in mice. The anti-mucositis activity is analyzed based on the mucositis score. The scoring parameters for anti-mucositis activity include erythema, vasodilation, erosion, bleeding, fibrosis, and ulcers.
A scoring method is adopted for oral mucositis induced by radiation and chemotherapy. The scoring evaluates the relationship between dosage, delivery method and complications. The Scoring systems are useful in assessing the impact of therapy on patient. […]
FIG. 5 illustrates the effect of topical or oromucosal gel formulation in mice with oral mucositis. The mucositis score was evaluated for 6 groups of mice (G1-G6) over a period of 15 days.

TNF-α = test: tongue and serum TNF-α levels in mice with oral mucositis (mouse TNF-α ELISA kit); conditions: 5-FU + scratch mice
Method: as §1, §2, §3
The tongue and serum concentrations of TNF-α were analyzed in mice with oral mucositis upon treatment with topical or oromucosal gel formulation. The concentrations of TNF-α in tongue and serum were analyzed using mouse TNF-α ELISA kit.

[1] = body weights of mice with oral mucositis over 15 days; conditions: 5-FU + scratch mice; period of 15 days
Method: as §1
The anti-mucositis study protocol involves mice that are intraperitoneally administered with 5-FU at 100 mg/kg on day 0. The scratching group of mice was anesthetized with isoflurane and an area of 0.5 cm^2 of the tongue was scratched using the tip of an 18-gauge needle at an equal force and depth on days 7 and 8. The scratching was blinded to the treatment groups. Dexamethasone was administered orally at 1 mg/kg/day from on day 7.
The body weights of mice with oral mucositis upon treatment with topical or oromucosal gel formulation were analyzed for a period of 15 days.

Q: For `C[C@@H]1C[C@H]2[C@@H]3CCC4=CC(=O)C=C[C@]4(C)[C@@]3(F)[C@@H](O)C[C@]2(C)[C@@]1(O)C(=O)CO` [Dexamethasone], which “serum IL-6 mean concentration” value (IL-6; serum) is on record?
A: 6.91

Q: And the “tongue IL-6 mean concentration” value (IL-6; tongue)?
A: 44.20

Q: And the “mucositis score reached in the increase phase” value (oral mucositis; 5-FU 100 mg/kg i.p. day 0 + tongue scratch days 7 and 8, increase till day 8)?
A: 3

Q: And the “mucositis score after decrease over the remaining days” value (oral mucositis; 5-FU + scratch, end of 15 day period)?
A: 1

Q: And the “serum TNF-α mean concentration” value (TNF-α; serum)?
A: 3.32

Q: What about the “tongue TNF-α mean concentration” value (TNF-α; tongue) of the same compound?
A: 20.07

Q: And the body weight course [1]?
A: decrease in weight for 8 days and gradually increases over the remaining 7 days
